Columns and labels:
PLA2 Rat Paw Edema = assay: Phospholipase A2 Rat Paw Edema; type: in vivo, Lewis rats; conditions: for inhibition in vivo at 30 mg/kg: Rattus norvegicus, 2 hr, read-out: % Inhib of PLA2 Rat Paw Edema 2 hr (30 mg/kg)
Procedure: Phospholipase A2 Rat Paw Edema
Representation compounds of the invention were tested in rats to determine their ability to inhibit the acute inflammatory response induced by the injection of snake venom phospholipase A2. Test compounds are administered intraperitoneally or orally to groups of seven Lewis rats (≈200 gm) 1 hr prior to phospholipase A2 administration. The test compounds are dissolved in dimethyl sulfoxide for intraperitoneal administration and dissolved or suspended in Labrafil M-1944CS for oral administration. At 0 hr, 5 ug (10 units) of purified phospholipase A2 from Naja naja venom (Sigma Chem. Co.) dissolved in 0.1 mL of pyrogen free saline is injected subplantarly into the right hind paw to elicit the inflammatory response. The volume (in mL) of the right hind paw is measured by immersion of the paw to the level of the lateral malleolus in an aqueous plethysmometer immediately prior to the injection of phospholipase A2 and then at 0.5, 2 and 4 hr after phospholipase A2 injection. The paw edema is calculated by subtracting the zero time reading from the readings taken after injection. The percent change of the edema volume from the vehicle treated control is calculated to determine the activity of the test compound. Statistical analysis of the mean paw edema values of the control versus the treated groups is performed using Student's t-test. Significance of changes from mean value for vehicle-treated animals (*p<0.05, **p<0.01, ***p<0.001, ns/not significant).

[1] = tested on: Croton Oil Mouse Ear Edema; assay: Croton Oil Mouse Ear Edema Test; type: in vivo, CD-1 mice; conditions: topical, coapplied, 6 hours
Procedure: Twenty five μl of a 1% croton oil solution [dissolved in a mixture of pyridine/water/diethyl ether at a ratio of 5/20/75 (croton oil vehicle)] are applied to the outer side of the right ear of 3-4 week old made CD-1 mice (8 animals per group). The test compounds are dissolved directly in the 1% croton oil solution at various concentrations and coapplied. Control animals receive 25 μl of croton oil vehicle on the right ear. Biopsy punches are removed at 6 hours from the right ear of the animals using a 6 mm skin trephine (Roboz, Washington, D.C.) and the wet weight of the ear punches is determined. The weight of the biopsy punches is a measure of ear inflammation, primarily edema. The data are expressed as percent inhibition relative to control groups.

HSF-PLA2 = target: T1, HSF-PLA2 (Homo sapiens, UniProt P14555); assay: Assay for Inhibition of HSF-PLA2 In Vitro; type: biochemical; conditions: for IC50: read-out: Inhib of HSF-PLA2 IC50
T1 construct: extracellular enzyme obtained from human synovial fluid (HSF-PLA2); from tissue; host or cells: pooled human synovial fluid, added at 0.1% (v/v)
T1 sequence (P14555 21-144): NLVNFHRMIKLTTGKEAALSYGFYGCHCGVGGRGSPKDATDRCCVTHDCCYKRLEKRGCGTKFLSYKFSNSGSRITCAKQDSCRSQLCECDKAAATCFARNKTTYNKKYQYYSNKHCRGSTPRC
Procedure: Assay for Inhibition of HSF-PLA2 In Vitro
The PLA2 used in this test is the extracellular enzyme obtained from human synovial fluid (HSF-PLA2).
The optimal conditions which were developed for the assay of HSF-PLA2 inhibitors are summarized as follows. […] The reaction was initiated by the addition of HSF-PLA2 and duplicate samples of the mixture were incubated in 13×100 mm glass tubes with shaking for 30 minutes at 37° C. […] The extraction of lipids from the stopped reaction mixture was conducted by the further additions of […] of chloroform and 1 ml of water with mixing. After centrifuging, the lower chloroform phase was transferred to smaller glass tubes and the solvent was evaporated to dryness with a nitrogen stream. The extracted lipid residue was redissolved in 50 μl of a solution containing carrier oleic acid (0.2 mg/ml) of chloroform-methanol [9 to 1, v/v]). The whole lipid extract was applied to a preactivated (30 minutes at 110° C.) silica gel-impregnated glass fiber thin layer chromatography sheet (ITLC type SG sheet from Gelman Sciences, Inc., Ann Arbor, Mich.) using hexane-acetic acid (100 to 1, v/v) as the developing solvent. This TLC system rapidly (6 minutes) resolved the enzymatically released product, ^14 C-oleic acid, from the unreacted ^14 C-phospholipid substrate. The unsaturated lipids were located on the chromatogram by a brief exposure to iodine vapor. […] A control incubation of substrate in the absence of HSF-PLA2 was performed in each experiment.

[2] = read-out: Inhib of HSF-PLA2, % inhibition

Structure (SMILES)	inhibition in vivo at 30 mg/kg (PLA2 Rat Paw Edema) [%]	% Inhib of Croton Oil Mouse Ear Edema (1 mg) [1] [%]	inhibition at 1 µM (HSF-PLA2; [2]) [%]	IC50 (HSF-PLA2) [nM]	% Inhib of PLA2 Rat Paw Edema 2 hr (PLA2 Rat Paw Edema; (10 mg/kg)) [%]	inhibition at 10 µM (HSF-PLA2; (10 μM), read-out: Inhib of HSF-PLA2, % inhibition) [%]	inhibition at 5 µM (HSF-PLA2; [2]) [%]
CCCCCCCCCCCCCCCCCCOc1cc(N(CC(=O)O)CC(=O)O)cc([S+]([O-])CC(=O)O)c1 (stereo not drawn) [Example 168, [[3-[bis(Carboxymethyl)amino]-5-(octadecyloxy)phenyl]sulfinyl]acetic acid]	45	83	26	–	–	–	–
CCCCCCCCCCOc1cc(OCCCCCCCCCC)cc(N(CC(N)=O)CC(=O)O)c1.N [Example 32, N-(Carbamoylmethyl)-N-[3,5-bis(decyloxy)phenyl]glycine ammonium salt]	23	54	48	–	–	–	–
CCCCCCCCCCCCCCCCCCOc1cc(OCCOc2ccc3ccccc3c2)cc(N(CC(=O)O)CC(=O)O)c1 [Example 58h, N-(carboxymethyl)-N-[3-[2-(2-naphthalenyloxy)ethoxy]-5-(octadecyloxy)phenyl]glycine]	31	3	–	50	–	–	–
CCCCCCCCCCOc1cc(OCCCCCCCCCC)cc(N2CC(=O)OC(=O)C2)c1 [Example 30, 4-[3,5-bis(decyloxy)phenyl]2,6-morpholinedione]	91	63	–	470	–	–	–
CCCCCCCCCCCCCCCCCCOc1cc(OCCCOc2ccc(C(=O)OC)cc2)cc(N(CC(=O)O)CC(=O)O)c1 [Example 58o, N-(carboxymethyl)-N-[3-[3-[4-(methoxycarbonyl)phenoxy)propoxy]-5-(octadecyloxy)phenyl]glycine]	0	30	–	100	–	–	–
CCCCCCCCCCCCCCCCCNC(=O)Oc1cccc(N(CC(=O)O)CC(=O)O)c1 [Example 36c, N-(carboxymethyl)-N-[3-[[(heptadecylamino)carbonyl]oxy]phenyl]glycine]	0	0	–	1000	–	–	–
CCCCCCCCCCOc1cc(OCCCCCCCCCC)cc(N(CC(=O)O)CC(=O)OCCN(CC)CC)c1.Cl [Example 33, N-(2-Diethylaminoethoxy-2-oxoethyl)-N-[3,5-bis(decyloxy)phenyl]glycine monohydrochloride salt]	15	25	-5	–	–	–	–
CCCCCCCCCCCCCCCCCCOc1cc(OCCO)cc(N(CC(=O)O)CC(=O)O)c1 [Example 58a, N-(carboxymethyl)-N-[3-(2-hydroxyethoxy)-5-(octadecyloxy)phenyl]glycine]	29	0	–	200	–	–	–
CCCCCCCCCCCCCCCCCCOc1cc(O)cc(N(CC(=O)O)CC(=O)O)c1 [Example 81, N-(Carboxymethyl)-N-[3-hydroxy-5-(octadecyloxy)phenyl]glycine]	–	69	–	230	44	–	–
CCCCCCCCCCCCCCCCCCOc1cc(OCCCCC(=O)O)cc(N(CC(=O)O)CC(=O)O)c1 [Example 65, N-[3-(4-Carboxybutoxy)-5-(octadecyloxy)phenyl]-N-(carboxymethyl)glycine]	35	91	–	860	–	–	–
CCCCCCCCCCCCCCOc1cc(C(=O)OC)cc(N(CC(=O)O)CC(=O)O)c1 [Example 69a, N-(carboxymethyl)-N-[(3-methoxycarbonyl)-5-(tetradecyloxy)phenyl]glycine]	12	71	52	–	–	–	–
CCCCCCCCCCCCCCCCCC(=O)Oc1cccc(N(CC(=O)O)CC(=O)O)c1 [Example 36b]	0	61	–	200	–	–	–
O=C(O)CCCCCCCCCCOc1cc(OCCCCCCCCCCC(=O)O)cc(N(CC(=O)O)CC(=O)O)c1 [Example 6k, N-(carboxymethyl)-N-[3,5-bis[(11-hydroxy-11-oxoundecyl)oxy]phenyl]glycine]	0	16	–	–	–	35	–
O=C(O)CN(CC(=O)O)c1cc(OCCCOc2ccccc2-c2ccccc2)cc(OCCCOc2ccccc2-c2ccccc2)c1 [Example 6l]	0	30	–	420	–	–	–
CCCCCCCCCCNC(=O)c1cc(NCC(=O)O)cc(C(=O)NCCCCCCCCCC)c1 [Example 12, N-[3,5-Bis[(decylamino)carbonyl]phenyl]glycine]	34	70	–	5200	–	–	–
CCCCCCCCCCCCCCCCCCOc1cc(OCCCOc2ccc(O)cc2)cc(N(CC(=O)O)CC(=O)O)c1 [Example 58l, N-(carboxymethyl)-N-[3-[3-(4-hydroxyphenoxy)propoxy]-5-(octadecyloxy)phenyl]glycine]	53	76	81	–	–	–	–
CCCCCCCCCCCCCCOc1cc(C(=O)O)cc(N(CC(=O)O)CC(=O)O)c1 [Example 69b, N-[3-carboxy-5-(tetradecyloxy)pyhenyl]-N-(carboxymethyl)glycine]	4	72	18	–	–	–	–
CCCCCCCCCCCCCCCCCCOc1cc(OCCCOc2cccc(OC)c2)cc(N(CC(=O)O)CC(=O)O)c1 [Example 58j, N-(carboxymethyl)-N-[3-[3-(3-methoxyphenoxy)propoxy]-5-(octadecyloxy)phenyl]glycine]	57	28	–	60	–	–	–
CCCCCCCCCCCCCCCCCCNC(=O)Nc1cccc(N(CC(=O)O)CC(=O)O)c1 [Example 36e, N-(carboxymethyl)-N-[3-[[(octadecylamino)carbonyl]amino]phenyl]glycine]	30	31	–	–	–	–	74
CCCCCCCCCCCCCCCCCCOc1cc(N)cc(N(CC(=O)O)CC(=O)O)c1 [Example 94, N-(Carboxymethyl)-N-[3-amino-5-(octadecyloxy)phenyl]glycine]	28	10	–	420	–	–	–
CCCCCCCCCCCCCCOC(=O)c1cc(C(=O)OCCCCCCCCCCCCCC)cc(N(CC(=O)O)CC(=O)O)c1 [Example 25, N-(Carboxymethyl)-N-[3,5-bis[(tetradecyloxy)carbonyl]phenyl]glycine]	17	62	48	–	–	–	–
COC(=O)CCCCCCCCCCOc1cc(OCCCCCCCCCCC(=O)OC)cc(N(CC(=O)O)CC(=O)O)c1 [Example 6j, N-(carboxymethyl)-N-[3,5-bis[(11-methoxy-11-oxoundecyl)oxy]phenyl]glycine]	0	66	–	300	–	–	–
CCCCCCCCCCCCCCCCCCOc1cc(C(N)=O)cc(N(CC(=O)O)CC(=O)O)c1 [Example 75, N-(Carboxymethyl)-N-[(3-carbamoyl)-5-(octadecyloxy)phenyl]glycine]	33	15	–	–	–	–	84
CCCCCCCCCCOC(=O)c1cc(C(=O)OCCCCCCCCCC)cc(N(CC(=O)O)CC(=O)O)c1 [Example 6v, N-(carboxymethyl)-N-[3,5-bis[(decyloxy)carbonyl]phenyl]glycine]	9	80	73	–	–	–	–
